# Data reported in patent US20260216184A1 (SHENZHEN NEWDEL BIOTECH CO., LTD., priority 2023, published 2026).
# Columns and labels:
# α-SMA = test: UUO-induced renal fibrosis in mice, α-SMA immunohistochemical staining of kidney tissues; assay type: in vivo, C57 mice
# Source text: (§1) Modeling a UUO model mouse: C57 mice (male, 8 weeks old, weighing 20-25 g) were purchased from Zhejiang Vital River Laboratory Animal Technology Co., Ltd. After anesthesia, a 1-2 cm incision was made in the left kidney region of the abdomen, and the intestinal tract was carefully removed to expose the ureter. The ureter was ligated with double lines and cut off at the middle position of the double-line ligation. The intestinal tract was recovered, and the incision was stitched.
# (§2) All animals were administered orally on the day of surgery. Animals in the sham group and vehicle group were administered a test drug vehicle (5% DMSO+5% Tween80+20% PEG400+70% H2O). All administration solutions were freshly prepared before use. The experiment ended 10 days after the administration.
# (§3) The preparation method for the positive drug included weighing pirfenidone into a mortar, adding a small amount of 0.5% CMC-Na, grinding the mixture fully and uniformly, supplementing the mixture with the remaining 0.5% CMC-Na, and mixing well for use.
# (§4) At the end of the experiment, the left kidney was taken and placed in 4% PFA for fixation. The kidney was conventionally sectioned and stained 24 h after the fixation.
# [1] = test system: UUO-induced renal fibrosis; test: UUO-induced renal fibrosis in mice, H&E staining of kidney tissues; assay type: in vivo, C57 mice; conditions: 10 days
# Source text: as §1, §2, §3, §4
# EPHA6 = target: T1, EPHA6 (Homo sapiens, UniProt Q9UF33); test: EPHA6 enzyme activity assay (HTRF); assay type: biochemical; conditions: ATP 25 μM; read-out: IC50 against EPHA6
# T1 sequence (Q9UF33 23-1036): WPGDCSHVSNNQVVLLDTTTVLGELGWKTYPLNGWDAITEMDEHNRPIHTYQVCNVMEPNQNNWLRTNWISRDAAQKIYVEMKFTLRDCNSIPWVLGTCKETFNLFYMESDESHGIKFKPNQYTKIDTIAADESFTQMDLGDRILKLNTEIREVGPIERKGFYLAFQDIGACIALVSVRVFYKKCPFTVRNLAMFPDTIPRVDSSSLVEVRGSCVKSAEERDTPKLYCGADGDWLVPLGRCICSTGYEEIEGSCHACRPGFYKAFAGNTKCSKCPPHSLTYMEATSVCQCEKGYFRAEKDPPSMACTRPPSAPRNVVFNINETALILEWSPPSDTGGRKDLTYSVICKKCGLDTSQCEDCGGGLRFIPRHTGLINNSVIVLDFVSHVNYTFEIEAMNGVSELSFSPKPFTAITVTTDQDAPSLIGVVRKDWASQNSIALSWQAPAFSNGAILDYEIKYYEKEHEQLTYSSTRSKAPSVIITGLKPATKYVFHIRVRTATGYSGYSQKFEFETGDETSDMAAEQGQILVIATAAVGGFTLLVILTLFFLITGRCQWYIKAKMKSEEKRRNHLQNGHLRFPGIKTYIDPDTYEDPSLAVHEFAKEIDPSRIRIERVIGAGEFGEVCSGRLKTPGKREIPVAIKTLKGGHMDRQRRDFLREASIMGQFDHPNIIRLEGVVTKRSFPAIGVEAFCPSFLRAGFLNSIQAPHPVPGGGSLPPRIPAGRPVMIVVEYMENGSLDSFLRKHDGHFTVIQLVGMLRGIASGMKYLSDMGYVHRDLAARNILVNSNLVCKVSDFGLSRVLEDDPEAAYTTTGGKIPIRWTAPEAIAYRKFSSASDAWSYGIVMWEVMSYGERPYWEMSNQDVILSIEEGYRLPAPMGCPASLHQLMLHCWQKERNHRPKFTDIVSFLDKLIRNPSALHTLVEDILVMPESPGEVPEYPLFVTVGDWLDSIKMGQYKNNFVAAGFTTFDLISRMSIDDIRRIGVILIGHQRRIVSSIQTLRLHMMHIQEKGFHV
# Protocol: Replicate wells were set for the assay. 2× kinase solution was prepared with 1× kinase reaction buffer (5× buffer, 5 mM MgCl2, 1 mM DTT, H2O, and 1 mM MnCl2). 2.5 μL of EPHA6 (0.5 nM, 08-125, Carna) solution was transferred to a 384 reaction plate.
# F4/80 (macrophages) = test: UUO-induced renal fibrosis in mice, F4/80 immunohistochemical staining of kidney tissues; assay type: in vivo, C57 mice; conditions: 10 days
# Source text: as §1, §2, §3, §4
# [2] = test system: UUO-induced renal fibrosis; test: UUO-induced renal fibrosis in mice, Masson staining of collagen fibers in kidney tissues; assay type: in vivo, C57 mice
# Source text: as §1, §2, §3, §4
# [3] = Relative body weight change in UUO model mice; assay type: in vivo, C57 mice; conditions: Group 7, 250 mg/kg BID P.O
# Source text: as §1, §2, §3
# Relative body weight change=body weight on day n/body weight on day 0×100%
smiles,measurement,setting,value
"Cc1c(C#Cc2cnc3ccc(N4CCC(O)CC4)nn23)cccc1C(=O)Nc1cc(Cl)cc(C(F)(F)F)c1 [compound 1, N-(3-chloro-5-(trifluoromethyl)phenyl)-3-((6-(4-hydroxypiperidin-1-yl)imidazo[1,2-b]pyridazin-3-yl)ethynyl)-2-methylbenzamide]",α-SMA positive area compared with the vehicle group,"α-SMA; 3 mpk QD P.O, 10 days, P<0.05 (FIG. 4B)",significantly reduced
same,levels of α-SMA compared with the vehicle group,"α-SMA; 10 mpk, 30 mpk and 100 mpk QD P.O, 10 days (FIG. 4B)",significantly reduced
same,"H&E staining of kidney tissue, compared with the vehicle group","[1]; compound 1 dose groups (3, 10, 30, 100 mg/kg QD P.O)","reduced tubular atrophy, a looser glomerular structure, and no significant thickening of tubular basement membrane"
same,IC50,EPHA6,12.8 nM
same,expression levels of macrophages (F4/80) compared with the vehicle group,F4/80 (macrophages); 30 mpk and 100 mpk QD P.O,significantly reduced
same,expression levels of macrophages (F4/80) compared with the vehicle group,"F4/80 (macrophages); each dose group (3, 10, 30, 100 mpk QD P.O)",reduced expression levels of macrophages
same,"Masson staining positive area, quantitative analysis","[2]; 3 mpk QD P.O, 10 days (FIG. 3B)",significantly reduce the Masson staining positive area
same,"Masson staining, collagen deposition in the renal tubular spaces","[2]; 3 mpk, 10 mpk, 30 mpk and 100 mpk groups, QD P.O, 10 days (FIG. 3A)",significant effect in relieving the collagen deposition
same,onset dose for treating renal fibrosis,"[2]; UUO mice, QD P.O, 10 days",3 mg/kg
Cc1ccc(=O)n(-c2ccccc2)c1 [pirfenidone],"H&E staining of kidney tissue, compared with the vehicle group",[1]; 250 mg/kg BID P.O,a looser glomerular structure and no significant material deposition in the renal tubular spaces
same,Relative body weight change,[3]; day 0,100 ± 0.00%
same,Relative body weight change,[3]; day 1,90.41 ± 0.25%
same,Relative body weight change,[3]; day 2,89.78 ± 0.81%
same,Relative body weight change,[3]; day 3,88.90 ± 0.75%
same,Relative body weight change,[3]; day 4,90.19 ± 0.85%
same,Relative body weight change,[3]; day 5,91.53 ± 0.62%
same,Relative body weight change,[3]; day 6,91.83 ± 0.85%
same,Relative body weight change,[3]; day 7,89.72 ± 0.68%
same,Relative body weight change,[3]; day 8,90.68 ± 0.85%
same,Relative body weight change,[3]; day 9,93.04 ± 0.66%
same,Relative body weight change,[3]; day 10,96.16 ± 1.10%
